# According to patent US20230167073A1 (Teijin Pharma Limited, priority 2020, published 2023):
# Molecular target: T1, Human TRPC6 (Homo sapiens, UniProt Q9Y210)
# T1 construct: expressed in transfected cells
# T1 sequence (Q9Y210 1-931): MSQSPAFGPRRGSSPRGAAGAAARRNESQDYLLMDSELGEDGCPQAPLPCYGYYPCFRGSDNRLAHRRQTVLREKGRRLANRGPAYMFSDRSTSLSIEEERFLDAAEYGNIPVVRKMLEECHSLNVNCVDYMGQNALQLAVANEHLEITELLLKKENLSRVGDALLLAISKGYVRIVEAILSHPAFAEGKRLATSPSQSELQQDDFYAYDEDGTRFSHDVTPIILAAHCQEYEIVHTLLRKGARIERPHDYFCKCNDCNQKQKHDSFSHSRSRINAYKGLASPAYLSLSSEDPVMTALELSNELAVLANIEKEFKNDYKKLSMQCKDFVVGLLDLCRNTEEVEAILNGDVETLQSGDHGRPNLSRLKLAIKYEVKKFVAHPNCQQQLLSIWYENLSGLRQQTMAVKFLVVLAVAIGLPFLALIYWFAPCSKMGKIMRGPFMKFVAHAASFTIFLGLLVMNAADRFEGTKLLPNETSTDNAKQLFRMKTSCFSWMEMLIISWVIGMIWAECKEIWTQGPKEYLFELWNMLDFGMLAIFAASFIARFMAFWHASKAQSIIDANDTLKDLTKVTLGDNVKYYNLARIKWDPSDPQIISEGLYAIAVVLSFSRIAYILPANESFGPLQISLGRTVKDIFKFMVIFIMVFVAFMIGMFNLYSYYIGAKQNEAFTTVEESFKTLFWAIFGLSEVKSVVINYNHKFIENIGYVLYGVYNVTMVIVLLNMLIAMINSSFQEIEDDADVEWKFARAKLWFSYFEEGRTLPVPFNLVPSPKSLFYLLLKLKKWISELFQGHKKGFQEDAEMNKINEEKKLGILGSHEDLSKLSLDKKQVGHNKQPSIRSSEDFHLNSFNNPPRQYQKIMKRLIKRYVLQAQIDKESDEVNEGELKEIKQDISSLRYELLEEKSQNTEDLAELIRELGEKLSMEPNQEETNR
# Assay: Evaluation of TRPC6 channel inhibitory activity (1), FLIPR Calcium 5 Assay Kit, OAG stimulation (Compound Nos. 1-1293)
# Format: cell-based
# Conditions: not given
# Outline: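 Calcium influx read by FLIPR fluorescence in cells stably expressing human TRPC6, dye-loaded 30 min. Compounds preincubated 20 min, then OAG stimulation at 30 μM final. Inhibition fitted by four-parameter logistic regression to give pIC50, reported as +/++/+++ categories.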
row,SMILES,IC50
1,"N#Cc1ccc(-c2ncc(CCN)cn2)c(Oc2nnc(N3C4CCC3CC4)s2)c1 [compound 767, 4-[5-(2-aminoethyl)pyrimidin-2-yl]-3-[[5-(7-azabicyclo[2.2.1]heptan-7-yl)-1,3,4-thiadiazol-2-yl]oxy]benzonitrile]",< 10 nM

# Same assay, conditions: Human TRPC6 stably-expressing cells, OAG 30 μM, FLIPR Calcium 5 Assay Kit; read-out: Inhibitory activity (pIC50 class) (converted)
row,SMILES,IC50
1,"COC(c1cc(-c2nccs2)no1)c1cc(C#N)ccc1-c1ccc(CCN)cc1 (centres unmarked) [Compound No. 1232, 4-[4-(2-Aminoethyl)phenyl]-3-[methoxy-[3-(1,3-thiazol-2-yl)-1,2-oxazol-5-yl]methyl]benzonitrile]",> 1000 nM
2,"Cn1nc(C2CC2)cc1Oc1cc(C#N)ccc1-c1ccc(C(C)(C)N)cn1 [compound 400, 4-[5-(2-aminopropan-2-yl)pyridin-2-yl]-3-(5-cyclopropyl-2-methylpyrazol-3-yl)oxybenzonitrile]",10 to 1000 nM
3,"N#Cc1ccc(-c2ccc(CCN)cc2)c(Oc2cnnc(N3CCCCC3)c2)c1 [Compound 66, 4-[4-(2-aminoethyl)phenyl]-3-(6-piperidin-1-ylpyridazin-4-yl)oxybenzonitrile]",< 10 nM
4,"Cc1nc(Oc2cc(C#N)ccc2-n2cc3c(n2)CCNC3)cc(N2CCCCC2)n1 [compound 744, 3-(2-methyl-6-piperidin-1-ylpyrimidin-4-yl)oxy-4-(4,5,6,7-tetrahydropyrazolo[4,3-c]pyridin-2-yl)benzonitrile]",10 to 1000 nM
5,"Cn1nc(-c2ccccc2)cc1Oc1cc(C#N)ccc1-c1ncc(CN)cn1 [compound 310, 4-[5-(aminomethyl)pyrimidin-2-yl]-3-(2-methyl-5-phenylpyrazol-3-yl)oxybenzonitrile]",< 10 nM
6,"CN(C)c1nc(-c2ccc(C#N)cc2Oc2cc(-c3ccccn3)nn2C)nc2c1CNCC2 [compound 762, 4-[4-(dimethylamino)-5,6,7,8-tetrahydropyrido[4,3-d]pyrimidin-2-yl]-3-(2-methyl-5-pyridin-2-ylpyrazol-3-yl)oxybenzonitrile]",> 1000 nM
7,"CN(C)c1cc(Oc2cc(C#N)ccc2-c2ccc([C@@H](F)CN)cn2)n(C)n1 [compound 910, 4-[5-[(1R)-2-amino-1-fluoroethyl]pyridin-2-yl]-3-[5-(dimethylamino)-2-methylpyrazol-3-yl]oxybenzonitrile]",< 10 nM
8,"Cc1nc(Oc2cc(C#N)ccc2-c2ncc(CN)cn2)cc(-c2ccc(F)cn2)n1 [compound 474, 4-[5-(aminomethyl)pyrimidin-2-yl]-3-[6-(5-fluoropyridin-2-yl)-2-methylpyrimidin-4-yl]oxybenzonitrile]",> 1000 nM
9,"Cc1cc(Oc2cc(C#N)ccc2-c2ccc(CCN)cn2)cc(N2CCCC2)n1 [Compound 254, 4-[5-(2-aminoethyl)pyridin-2-yl]-3-(2-methyl-6-pyrrolidin-1-ylpyridin-4-yl)oxybenzonitrile]",< 10 nM
10,"Cc1nc(Oc2cc(C#N)ccc2-c2ncc(CN)cn2)cc(-c2ccccn2)n1 [compound 472, 4-[5-(aminomethyl)pyrimidin-2-yl]-3-(2-methyl-6-pyridin-2-ylpyrimidin-4-yl)oxybenzonitrile]",10 to 1000 nM
11,"N#Cc1ccc(-n2cc(C(O)CN)cn2)c(Cn2cnc(-c3ccccc3)c2)c1 (centres unmarked) [compound 1127, 4-[4-(2-amino-1-hydroxyethyl)pyrazol-1-yl]-3-[(4-phenylimidazol-1 yl)methyl]benzonitrile]",> 1000 nM
12,"Cc1cc(Oc2cc(C#N)ccc2-c2ccc([C@H](O)CN)cn2)cc(-c2cnccn2)n1 [compound 693, 4-[5-[(1S)-2-amino-1-hydroxyethyl]pyridin-2-yl]-3-(2-methyl-6-pyrazin-2-ylpyridin-4-yl)oxybenzonitrile]",10 to 1000 nM
13,"Cc1cc(Oc2cc(C#N)ccc2-c2ccc([C@H](O)CN)cn2)cc(OCCOC(C)C)n1 [compound 479, 4-[5-[(1S)-2-amino-1-hydroxyethyl]pyridin-2-yl]-3-[2-methyl-6-(2-propan-2-yloxyethoxy)pyridin-4-yl]oxybenzonitrile]",> 1000 nM
14,"N#Cc1ccc(-c2ccc(C(O)CN)cc2)c(Cn2cnc(-c3ccccc3)c2)c1 (centres unmarked) [compound 1129, 4-[4-(2-amino-1-hydroxyethyl)phenyl]-3-[(4-phenylimidazol-1-yl)methyl]benzonitrile]",< 10 nM
15,"N#Cc1ccc(-c2ncc(CCN)cn2)c(Oc2cnn(CC(F)F)c2)c1 [compound 927, 4-[5-(2-aminoethyl)pyrimidin-2-yl]-3-[1-(2,2-difluoroethyl)pyrazol-4-yl]oxybenzonitrile]",10 to 1000 nM
16,"Cn1nc2c(c1Oc1cc(C#N)ccc1-c1nccc(CN)n1)CCCC2 [compound 685, 4-[4-(aminomethyl)pyrimidin-2-yl]-3-[(2-methyl-4,5,6,7-tetrahydroindazol-3-yl)oxy]benzonitrile]",> 1000 nM

row,SMILES,IC50
1,"Cn1nc(-c2ccccn2)cc1Cc1cc(C#N)ccc1-c1ncc(CN)cn1 [compound 1205, 4-[5-(aminomethyl)pyrimidin-2-yl]-3-[(2-methyl-5-pyridin-2-ylpyrazol-3-yl)methyl]benzonitrile]",< 10 nM
2,"Cc1nc(Sc2cc(C#N)ccc2-c2ccc(CCN)cn2)cc(N2CCOCC2)n1 [compound 1248, 4-[5-(2-aminoethyl)pyridin-2-yl]-3-(2-methyl-6-morpholin-4-ylpyrimidin-4-yl)sulfanylbenzonitrile]",10 to 1000 nM
3,"Cn1nc(N2CCCCC2)cc1Oc1cc(C#N)ccc1-c1ccc(CN)cn1 [compound 621, 4-[5-(aminomethyl)pyridin-2-yl]-3-(2-methyl-5-piperidin-1-ylpyrazol-3-yl)oxybenzonitrile]",< 10 nM
4,"CCCc1cc(Oc2cc(C#N)ccc2-c2ncc(CCN)cn2)n(C)n1 [Compound 260, 4-[5-(2-aminoethyl)pyrimidin-2-yl]-3-(2-methyl-5-propylpyrazol-3-yl)oxybenzonitrile]",< 10 nM
5,"Cn1nc(-c2ccccc2)cc1Oc1cc(C#N)ccc1-c1ccc2c(CN)noc2c1 [compound 457, 4-[3-(aminomethyl)-1,2-benzoxazol-6-yl]-3-(2-methyl-5-phenylpyrazol-3-yl)oxybenzonitrile]",> 1000 nM
6,"Cn1nc(C2CC2)cc1Oc1cc(C#N)ccc1-c1ccc(C(N)C(N)=O)cn1 (centres unmarked) [compound 504, 2-amino-2-[6-[4-cyano-2-(5-cyclopropyl-2-methylpyrazol-3-yl)oxyphenyl]pyridin-3-yl]acetamide]",> 1000 nM
7,"CN(CC1CC1)c1cc(Oc2cc(C#N)ccc2-c2ncc(CCN)cn2)n(C)n1 [compound 769, 4-[5-(2-aminoethyl)pyrimidin-2-yl]-3-[5-[cyclopropylmethyl(methyl)amino]-2-methylpyrazol-3-yl]oxybenzonitrile]",< 10 nM
8,"Cc1cc(Oc2cc(C#N)ccc2-c2nnc(CN)s2)cc(N2CCOCC2)n1 [compound 593, 4-[5-(aminomethyl)-1,3,4-thiazol-2-yl]-3-(2-methyl-6-morpholin-4-ylpyridin-4-yl)oxybenzonitrile]",> 1000 nM
9,"Cn1nc(C2CCC2)cc1Oc1cc(C#N)ccc1-c1ncc(C(O)CN)cn1 (centres unmarked) [Compound 278, 4-[5-(2-amino-1-hydroxyethyl)pyrimidin-2-yl]-3-(5-cyclobutyl-2-methylpyrazol-3-yl)oxybenzonitrile]",< 10 nM
10,"CC(=O)Nc1cc(Oc2cc(C#N)ccc2-c2ccc(CCN)cn2)n(C)n1 [compound 547, N-[5-[2-[5-(2-aminoethyl)pyridin-2-yl]-5-cyanophenoxy]-1-methylpyrazol-3-yl]acetamide]",10 to 1000 nM
11,"N#Cc1ccc(-c2ncc(CN)cn2)c(C(=O)c2cnn(-c3nccs3)c2)c1 [compound 1050, 4-[5-(aminomethyl)pyrimidin-2-yl]-3-[1-(1,3-thiazol-2-yl)pyrazole-4-carbonyl]benzonitrile]",10 to 1000 nM
12,"CC(C)n1cc(Oc2cc(Cl)ccc2-c2ncc(CCN)cn2)cn1 [compound 1020, 2-[2-[4-chloro-2-(1-propan-2-ylpyrazol-4-yl)oxyphenyl]pyrimidin-5-yl]ethanamine]",10 to 1000 nM
13,"NCCc1cnc(-c2ccc(F)cc2C(=O)c2cnn(C3CCC3)c2)nc1 [compound 1108, [2-[5-(2-aminoethyl)pyrimidin-2-yl]-5-fluorophenyl]-(1-cyclobutylpyrazol-4-yl)methanone]",10 to 1000 nM
14,"Cc1nc(Oc2cc(C#N)ccc2-c2ncc(CN)cn2)cc(N(C)C2COC2)n1 [compound 852, 4-[5-(aminomethyl)pyrimidin-2-yl]-3-[2-methyl-6-[methyl(oxetan-3-yl)amino]pyrimidin-4-yl]oxybenzonitrile]",> 1000 nM
15,"CC(C)Cn1cc(Cc2cc(C#N)ccc2-c2ncc(CN)cn2)cn1 [compound 1196, 4-[5-(aminomethyl)pyrimidin-2-yl]-3-[[1-(2-methylpropyl)pyrazol-4-yl]methyl]benzonitrile]",10 to 1000 nM
